According to patent publication US9133165B2, “Sulfonic acid salts of heterocyclylamide-substituted imidazoles” (AICURIS GMBH & CO. KG, priority 2011, dated 2015):
Converted amounts (≈) assume the structure as drawn. Like-named read-outs stand apart in the source and are kept apart here.

What was measured:
Hygroscopy = type: physicochemical; details: approximately 46% relative atmospheric humidity and 24° C., storage time approximately 2 days
Method: By storing the salt of Example 1 in pure form at approximately 46% relative atmospheric humidity and 24° C., the hygroscopy of the salts according to the invention was measured.

[1] = Solubility studies in H2O; type: physicochemical; details: water, thermodynamic from solid, 20 mg in 1 ml of H2O, stirred overnight at 25° C., filtrate analyzed by HPLC
Method: 1 ml of H2O each is added, and the HPLC glasses are sealed. The suspensions that are produced are stirred overnight at 25° C. To estimate the amount of dissolved substance, the suspensions are filtered via pipette microfilters, and the filtrates that are obtained are diluted 1:4 and analyzed by means of HPLC. The HPLC analysis was carried out on a […] Luna RP18 (100A)-column with the following dimensions: 5 μm 50×4.6 mm with use of an isocratic mixture of acetonitrile and H2O+0.1% TFA in the ratio 3:7.

HCMV AD 169 RV-HG = assay: HCMV fluorescence reduction test; type: cell-based, human cytomegalovirus
Method: The test compounds are used as 50 millimolar (mM) solutions in dimethyl sulfoxide (DMSO). As reference compounds, e.g., Ganciclovir®, Foscarnet®, Cidofovir® or else the compound of Example 9A can be used. One day before the start of the test, 1.5×10^4 human foreskin fibroblasts (NHDF cells)/well are sowed in 200 μl of cell culture medium in the wells B2-G11 of 96-well plates (black with a translucent bottom). The wells at the edge position of each 96-well plate are filled only with 200 μl of medium to avoid edge effects. On the day of the test, the cell culture medium is suctioned off from the wells B2-G11 of each 96-well plate and replaced by 100 μl of virus suspension (multiplicity of infection (MOI): 0.1-0.2). The virus that is used is a recombinant HCMV, which has integrated an expression cassette for the green fluorescence protein (GFP) in the virus genome (HCMV AD 169 RV-HG, E. M. Borst, K. Wagner, A. Binz, B. Sodeik, and M. Messerle, 2008, J. Virol. 82: 2065-2078). After an incubation time of 2 hours at 37° C. and 5% CO2, the virus inoculate is suctioned off, and all wells except for the wells in Column 3 are filled with 200 μl of cell culture medium. Column 2 is not further treated and serves as a virus control. The wells in Column 3 are filled in each case in double determination with 300 μl of test substance (diluted in cell culture medium). The concentration of the respective antiviral substance in Column 3 is ˜ the 27× concentration of the EC50 value that is expected in each case. The test substance in Column 3 is diluted in 8 steps 1:3 over the 96-well plate by in each case 100 μl of a column being transferred into the right column in each case—and being mixed there with the existing 200 μl of cell culture medium. […] Then, the GFP intensity of each well of a 96-well plate is determined by means of a fluorescence reading device (FluoBox; Bayer Technology Services GmbH; Filter settings: GFP, Ex 480 nm, Em 520 nm). The EC50 of an anti-HCMV substance can be determined from the thus obtained measurement values: […]

[2] = Solubility under simulated conditions in the human stomach; type: physicochemical; details: aqueous sodium chloride solution (0.2% by weight), pH 1.2 with hydrochloric acid, stirred for 5 hours
Method: The samples were then treated as described above, and the amount of free base in solution is determined by means of HPLC.

[3] = Human betaherpesvirus 5, AD169, NHDF, 168 h, read-out: EC50 (GFP-RA), virus strain AD169 RV-HG in NHDF cells, 7 days, GFP fluorescence

For CS(=O)(=O)O.CS(=O)(=O)O.Cc1ccc(N2CCN(C(=O)c3nc(NC(=O)Nc4ccc(OC(F)(F)F)cc4)cn3C)CC2)nc1 [Example 1, N-(1-Methyl-2-{[4-(5-methylpyridin-2-yl)piperazin-1-yl]-carbonyl}-1H-imidazol-4-yl)-N′-[4-trifluoromethoxyphenyl]urea dimesylate], the “weight increase (hygroscopy)” value (Hygroscopy) was “less than 0.11%”, the solubility [1] was over 9700 µg/mL and the EC50 (HCMV AD 169 RV-HG; read-out: EC50 (GFP-RA), virus strain AD169 RV-HG in NHDF cells, 7 days, GFP fluorescence, dimesylate) was 1.8 nM. For the same compound, the “Amount of Dissolved Free Base” value [2] was 0.103 mg/mL.

For Cc1ccc(N2CCN(C(=O)c3nc(NC(=O)Nc4ccc(OC(F)(F)F)cc4)cn3C)CC2)nc1 [Example 9A, N-(1-Methyl-2-{[4-(5-methylpyridin-2-yl)piperazin-1-yl]carbonyl}-1H-imidazol-4-yl)-N′-[4-(trifluoromethoxy)phenyl]urea], the solubility [1] was 4 µg/mL (≈ 7.94 µM), the EC50 (HCMV AD 169 RV-HG; [3]) was 1.5 nM and the “Amount of Dissolved Free Base” value [2] was 0.065 mg/mL.

Nc1nc(O)c2ncn(COC(CO)CO)c2n1 [Ganciclovir, reference compound] showed an EC50 (HCMV AD 169 RV-HG; [3]) of 3200 nM.
